Measured values published in patent EP2027772A1, “Skin-friendly insect repellent” (Beiersdorf AG, priority 2007, dated 2009).

assay: physchem; settings: not given

Row | Compound | logP
1 | CC(O)CCO (stereo not drawn) [1,3 Butandiol] | -0.7
2 | OCCCCCO [1,5 Pentandiol] | -0.6
3 | OCCCCCCO [1,6 Hexandiol] | -0.1
4 | OCC(CO)(CO)CO [2,2 Bishydroxymethyl 1,3 Propanediol] | -2.4
5 | CCC(CO)(CO)CO [2-Ethyl-2-Hydroxymethyl 1,3 Propandiol] | -0.8
6 | CCCCC(CC)COCC(O)CO (stereo not drawn) [3-[(2-Ethylhexyl)oxy]-1,2 propandiol] | 2.1

same assay, conditions: n-octanol/water

Row | Compound | logP
7 | CCCCCC(O)CO (stereo not drawn) [1,2 Heptanediol] | 1.5
8 | CCCCC(O)CO (stereo not drawn) [1,2 Hexandiol] | 1
9 | CCCCCCCC(O)CO (stereo not drawn) [1,2 Nonanediol] | 2.5
10 | CCCCCCC(O)CO (stereo not drawn) [1,2 Octandiol] | 1.3
11 | CCCC(O)CO (stereo not drawn) [1,2 Pentandiol] | -0.3
12 | CCCCCC(O)C(O)CO (stereo not drawn) [1,2,3 Octanetriol] | 0.15
13 | CCCCCCCCC(O)CO (stereo not drawn) [1,2-Decandiol] | 2.4
14 | COCC(O)COC [1,3-Dimethoxy-2-propanol] | -0.5
15 | CC(CO)CO [2-Methyl-1,3-Propanediol] | -0.7
16 | CC(O)CC(C)(C)O (stereo not drawn) [2-Methyl-2,4 Pentandiol] | 0
17 | CCC(CO)(CO)COCC(CC)(CO)CO [3,3,7,7 Tetrahydroxymethyl 5 oxanonan] | -0.3
18 | CC(C)(O)CCO [3-Methyl 1,3 Butanediol] | -0.3

assay: Octanol/water partition coefficient (log P), shake-flask with UV spectroscopy; alternatively calculated by Hansch and Leo; settings: not given

Row | Compound | Log P-Wert
19 | CC(C)(CO)CO [Neopentanediol, Neopentyleme Glyol] | -0,3

same assay, conditions: n-Octanol/Wasser

Row | Compound | Log P-Wert
20 | CC(O)CO (stereo not drawn) [1,2 Propandiol] | -1,3
21 | OCCCCO [Butane-1,4diol, Tetramethylene Glucol] | -1
